We go through 32 molecules from ChEMBL document CHEMBL1137777, “Design, synthesis, and evaluation of indolinones as triple angiokinase inhibitors and the discovery of a highly specific 6-methoxycarbonyl-substituted indolinone (BIBF 1120)” (J Med Chem, 2009).

pEC50, pIC50: −log10 of the molar value.

In data set [1] the target is Vascular endothelial growth factor receptor 2 (Homo sapiens, UniProt P35968). Kind of data set: Inhibition of human VEGFR2 expressed in Sf9 cells.
Data set [2] relates to HeLa. Put plainly: Antiangiogenic activity against human HeLa cells assessed as inhibition of cell proliferation by [3H]thymidine incorporation assay. Type of data set: functional, cell-based. For orientation: Dividing cells build labelled thymidine or BrdU into new DNA.
Data set [3] is described as follows: Cmax in NMRI nu/nu mouse at 50 mg/kg, po administered as single dose. Type of data set: ADME, organism-based. More on the design: dose 50 mg/kg, route oral. Conditions: in vivo.
Data set [4] can be described thus: Half life in NMRI nu/nu mouse at 50 mg/kg, po administered as single dose. On the set-up: dose 50 mg/kg, route oral. Type of data set: ADME, organism-based. Conditions: in vivo.
Data set [5] can be described thus: AUC in NMRI nu/nu mouse at 50 mg/kg, po administered as single dose. More on the design: dose 50 mg/kg, route oral. To be noted: NMRI nu/nu, plasma. Type of data set: ADME, organism-based, Plasma.
Data set [6] deals with Fibroblast growth factor receptor 1 (Homo sapiens, UniProt P11362).
Description: Inhibition of human FGFR1
The target in data set [7] is Platelet-derived growth factor receptor alpha (Homo sapiens, UniProt P16234).
Description: Inhibition of human PDGFRalpha
The target of data set [8] is Vascular endothelial growth factor receptor 1 (Homo sapiens, UniProt P17948).
Description: Inhibition of human VEGFR1
Data set [9] concerns the target Vascular endothelial growth factor receptor 3 (Homo sapiens, UniProt P35916).
Description: Inhibition of human VEGFR3
Data set [10] deals with HUVEC. Put plainly: cells. Conditions: Homo sapiens, 3 h.
Description: Antiangiogenic activity in HUVEC assessed as inhibition of VEGF-induced cell proliferation by [3H]thymidine incorporation assay
Data set [11] addresses Insulin-like growth factor 1 receptor (Homo sapiens, UniProt P08069). Kind of data set: Inhibition of human IGFR1.
Data set [12] addresses Insulin receptor (Homo sapiens, UniProt P06213). Put plainly: Inhibition of human InsR.
Data set [13] deals with Cyclin-dependent kinase 1 (Homo sapiens, UniProt P06493). Put plainly: Inhibition of human CDK1.
Cyclin-dependent kinase 1, sequence (P06493 whole entry): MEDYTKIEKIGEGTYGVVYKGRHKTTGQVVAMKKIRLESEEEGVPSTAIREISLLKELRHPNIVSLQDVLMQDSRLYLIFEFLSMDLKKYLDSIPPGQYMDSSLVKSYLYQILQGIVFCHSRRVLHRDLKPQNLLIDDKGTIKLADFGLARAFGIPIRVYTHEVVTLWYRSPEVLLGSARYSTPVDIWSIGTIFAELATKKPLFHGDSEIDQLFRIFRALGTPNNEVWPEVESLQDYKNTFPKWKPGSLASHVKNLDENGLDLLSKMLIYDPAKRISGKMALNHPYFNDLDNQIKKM
The target in data set [14] is Cyclin-dependent kinase 4 (Homo sapiens, UniProt P11802). Put plainly: Inhibition of human CDK4.
Cyclin-dependent kinase 4, sequence (P11802 whole entry): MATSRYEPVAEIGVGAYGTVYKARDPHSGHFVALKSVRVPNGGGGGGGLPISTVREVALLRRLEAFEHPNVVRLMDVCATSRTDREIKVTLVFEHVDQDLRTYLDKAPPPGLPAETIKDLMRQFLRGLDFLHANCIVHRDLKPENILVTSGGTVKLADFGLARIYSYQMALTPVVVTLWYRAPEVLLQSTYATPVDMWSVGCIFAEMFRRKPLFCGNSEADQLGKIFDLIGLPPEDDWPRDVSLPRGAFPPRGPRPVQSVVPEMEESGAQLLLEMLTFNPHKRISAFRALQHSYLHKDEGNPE
The target in data set [15] is Epidermal growth factor receptor (Homo sapiens, UniProt P00533). Kind of data set: Inhibition of human EGFR.
For data set [16], the target named is Receptor tyrosine-protein kinase erbB-2 (Homo sapiens, UniProt P04626). Put plainly: Inhibition of human HER2.
Data set [17] deals with Serine/threonine-protein kinase PLK1 (Homo sapiens, UniProt P53350). Put plainly: Inhibition of human Plk1.
Data set [18] can be described thus: Plasma concentration in NMRI nu/nu mouse at 40 mg/kg, po administered as single dose after 2 hrs. It counts as ADME, organism-based. On the set-up: dose 40 mg/kg, route oral.
The nature of data set [19]: Plasma concentration in NMRI nu/nu mouse at 40 mg/kg, po administered as single dose after 24 hrs. On the set-up: dose 40 mg/kg, route oral. Type of data set: ADME, organism-based.
In data set [20] the test system is Calu-6. Put plainly: Antiangiogenic activity against human Calu6 cells assessed as inhibition of cell proliferation by [3H]thymidine incorporation assay. It counts as functional, cell-based.
Data set [21] concerns FaDu. Kind of data set: Antiangiogenic activity against human FADU cells assessed as inhibition of cell proliferation by [3H]thymidine incorporation assay. Type of data set: functional, cell-based.
In data set [22] the test system is FaDu. Put plainly: Antitumor activity against human FADU cells xenografted NMRI nu/nu mouse assessed as inhibition of mean tumor volume growth at 100 mg/kg, po qd after 21 days relative to control. Type of data set: functional. For orientation: Xenograft models place foreign cells or tissue in a host animal.
Data set [23] has as its system FaDu. Kind of data set: Antitumor activity against human FADU cells xenografted NMRI nu/nu mouse assessed as inhibition of mean tumor volume growth at 50 mg/kg, po qd after 21 days relative to control. Type of data set: functional.
In data set [24] the test system is FaDu. Put plainly: Antitumor activity against human FADU cells xenografted NMRI nu/nu mouse assessed as inhibition of mean tumor volume growth at 50 mg/kg, po bid after 21 days relative to control. Type of data set: functional.

One may read the pIC50 as the IC50 on a negative log10 scale, so that one unit is a factor of ten. Usually pEC50 stands for the negative decadic logarithm of the EC50, by convention in mol/L. Broadly, the Cmax is the highest concentration seen after dosing. One may read the half-life as the time needed for the level to fall by half in the phase considered. Read a low half-life as rapid decline. As usually defined, the AUC is concentration integrated over time. Read a low AUC as low exposure. By T/C is commonly meant the ratio of treated to control.

Vascular endothelial growth factor receptor 2, sequence (P35968 whole entry): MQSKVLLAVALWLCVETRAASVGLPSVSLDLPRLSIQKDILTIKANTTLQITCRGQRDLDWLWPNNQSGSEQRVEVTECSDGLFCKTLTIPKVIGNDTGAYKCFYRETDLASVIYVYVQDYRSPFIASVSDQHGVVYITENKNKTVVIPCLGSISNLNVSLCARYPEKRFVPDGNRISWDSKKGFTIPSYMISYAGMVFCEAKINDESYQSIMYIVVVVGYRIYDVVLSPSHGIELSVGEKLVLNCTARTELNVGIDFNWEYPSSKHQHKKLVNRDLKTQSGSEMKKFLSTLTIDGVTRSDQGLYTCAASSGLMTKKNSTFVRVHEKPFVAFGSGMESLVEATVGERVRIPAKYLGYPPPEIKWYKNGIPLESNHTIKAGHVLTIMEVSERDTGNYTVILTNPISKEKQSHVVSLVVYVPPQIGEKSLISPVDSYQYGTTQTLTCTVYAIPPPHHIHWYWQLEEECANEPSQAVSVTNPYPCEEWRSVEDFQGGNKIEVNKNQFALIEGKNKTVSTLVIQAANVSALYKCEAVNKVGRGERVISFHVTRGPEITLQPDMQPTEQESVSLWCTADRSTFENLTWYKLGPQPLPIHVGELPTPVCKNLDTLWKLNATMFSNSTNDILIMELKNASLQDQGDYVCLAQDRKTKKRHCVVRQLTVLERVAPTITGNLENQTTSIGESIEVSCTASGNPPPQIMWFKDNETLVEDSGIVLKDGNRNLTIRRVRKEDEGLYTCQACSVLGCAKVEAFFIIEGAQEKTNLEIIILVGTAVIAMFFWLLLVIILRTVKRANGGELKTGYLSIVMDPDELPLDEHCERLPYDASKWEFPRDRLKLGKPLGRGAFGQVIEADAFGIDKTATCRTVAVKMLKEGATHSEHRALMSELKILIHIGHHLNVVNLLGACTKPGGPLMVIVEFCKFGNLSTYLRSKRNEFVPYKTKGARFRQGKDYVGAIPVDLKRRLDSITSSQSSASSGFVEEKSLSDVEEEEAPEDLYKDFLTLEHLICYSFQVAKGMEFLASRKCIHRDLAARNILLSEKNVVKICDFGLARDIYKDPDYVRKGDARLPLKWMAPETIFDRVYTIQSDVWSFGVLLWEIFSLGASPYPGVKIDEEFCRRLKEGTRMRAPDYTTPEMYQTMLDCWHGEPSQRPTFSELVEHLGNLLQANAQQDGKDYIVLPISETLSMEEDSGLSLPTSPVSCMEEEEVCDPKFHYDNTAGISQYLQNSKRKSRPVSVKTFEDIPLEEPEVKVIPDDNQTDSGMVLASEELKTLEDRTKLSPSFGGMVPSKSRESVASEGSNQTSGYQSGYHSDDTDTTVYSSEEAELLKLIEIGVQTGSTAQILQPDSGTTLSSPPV
Insulin receptor, sequence (P06213 28-758 limits assumed): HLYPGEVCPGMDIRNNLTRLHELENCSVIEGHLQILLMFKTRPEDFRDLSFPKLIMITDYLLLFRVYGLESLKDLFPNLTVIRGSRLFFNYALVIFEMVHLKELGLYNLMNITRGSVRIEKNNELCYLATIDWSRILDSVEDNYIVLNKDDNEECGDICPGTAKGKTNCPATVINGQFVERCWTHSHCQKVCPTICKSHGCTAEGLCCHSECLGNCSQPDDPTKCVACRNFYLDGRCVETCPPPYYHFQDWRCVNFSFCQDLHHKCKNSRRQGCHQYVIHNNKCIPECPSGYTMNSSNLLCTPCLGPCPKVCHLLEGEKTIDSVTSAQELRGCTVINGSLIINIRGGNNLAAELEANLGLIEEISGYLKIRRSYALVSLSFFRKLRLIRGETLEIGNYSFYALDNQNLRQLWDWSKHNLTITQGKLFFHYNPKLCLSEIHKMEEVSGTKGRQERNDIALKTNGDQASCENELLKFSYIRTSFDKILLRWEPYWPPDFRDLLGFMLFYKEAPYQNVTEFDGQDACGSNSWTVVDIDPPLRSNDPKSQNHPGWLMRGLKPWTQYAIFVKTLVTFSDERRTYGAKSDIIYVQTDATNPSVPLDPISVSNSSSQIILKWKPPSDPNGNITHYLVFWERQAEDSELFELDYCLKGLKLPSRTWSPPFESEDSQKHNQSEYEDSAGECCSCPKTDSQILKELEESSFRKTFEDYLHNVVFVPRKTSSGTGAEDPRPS
Insulin receptor, sequence (P06213 763-1382 limits assumed): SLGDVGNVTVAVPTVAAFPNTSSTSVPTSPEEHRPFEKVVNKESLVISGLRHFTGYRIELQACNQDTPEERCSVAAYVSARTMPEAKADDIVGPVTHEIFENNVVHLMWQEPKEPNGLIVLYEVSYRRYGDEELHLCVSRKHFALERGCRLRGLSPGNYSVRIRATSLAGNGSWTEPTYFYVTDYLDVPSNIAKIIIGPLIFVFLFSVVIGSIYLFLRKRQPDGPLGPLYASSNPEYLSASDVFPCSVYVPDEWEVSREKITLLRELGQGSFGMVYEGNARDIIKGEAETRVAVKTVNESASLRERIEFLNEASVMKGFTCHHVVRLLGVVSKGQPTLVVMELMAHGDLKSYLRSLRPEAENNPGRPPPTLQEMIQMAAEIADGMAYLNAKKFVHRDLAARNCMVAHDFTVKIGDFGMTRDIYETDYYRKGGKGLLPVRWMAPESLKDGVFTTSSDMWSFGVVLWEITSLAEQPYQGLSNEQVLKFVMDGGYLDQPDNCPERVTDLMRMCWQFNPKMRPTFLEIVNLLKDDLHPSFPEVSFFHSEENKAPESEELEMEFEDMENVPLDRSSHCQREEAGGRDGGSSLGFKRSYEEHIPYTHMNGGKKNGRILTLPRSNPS
Vascular endothelial growth factor receptor 3, sequence (P35916 whole entry): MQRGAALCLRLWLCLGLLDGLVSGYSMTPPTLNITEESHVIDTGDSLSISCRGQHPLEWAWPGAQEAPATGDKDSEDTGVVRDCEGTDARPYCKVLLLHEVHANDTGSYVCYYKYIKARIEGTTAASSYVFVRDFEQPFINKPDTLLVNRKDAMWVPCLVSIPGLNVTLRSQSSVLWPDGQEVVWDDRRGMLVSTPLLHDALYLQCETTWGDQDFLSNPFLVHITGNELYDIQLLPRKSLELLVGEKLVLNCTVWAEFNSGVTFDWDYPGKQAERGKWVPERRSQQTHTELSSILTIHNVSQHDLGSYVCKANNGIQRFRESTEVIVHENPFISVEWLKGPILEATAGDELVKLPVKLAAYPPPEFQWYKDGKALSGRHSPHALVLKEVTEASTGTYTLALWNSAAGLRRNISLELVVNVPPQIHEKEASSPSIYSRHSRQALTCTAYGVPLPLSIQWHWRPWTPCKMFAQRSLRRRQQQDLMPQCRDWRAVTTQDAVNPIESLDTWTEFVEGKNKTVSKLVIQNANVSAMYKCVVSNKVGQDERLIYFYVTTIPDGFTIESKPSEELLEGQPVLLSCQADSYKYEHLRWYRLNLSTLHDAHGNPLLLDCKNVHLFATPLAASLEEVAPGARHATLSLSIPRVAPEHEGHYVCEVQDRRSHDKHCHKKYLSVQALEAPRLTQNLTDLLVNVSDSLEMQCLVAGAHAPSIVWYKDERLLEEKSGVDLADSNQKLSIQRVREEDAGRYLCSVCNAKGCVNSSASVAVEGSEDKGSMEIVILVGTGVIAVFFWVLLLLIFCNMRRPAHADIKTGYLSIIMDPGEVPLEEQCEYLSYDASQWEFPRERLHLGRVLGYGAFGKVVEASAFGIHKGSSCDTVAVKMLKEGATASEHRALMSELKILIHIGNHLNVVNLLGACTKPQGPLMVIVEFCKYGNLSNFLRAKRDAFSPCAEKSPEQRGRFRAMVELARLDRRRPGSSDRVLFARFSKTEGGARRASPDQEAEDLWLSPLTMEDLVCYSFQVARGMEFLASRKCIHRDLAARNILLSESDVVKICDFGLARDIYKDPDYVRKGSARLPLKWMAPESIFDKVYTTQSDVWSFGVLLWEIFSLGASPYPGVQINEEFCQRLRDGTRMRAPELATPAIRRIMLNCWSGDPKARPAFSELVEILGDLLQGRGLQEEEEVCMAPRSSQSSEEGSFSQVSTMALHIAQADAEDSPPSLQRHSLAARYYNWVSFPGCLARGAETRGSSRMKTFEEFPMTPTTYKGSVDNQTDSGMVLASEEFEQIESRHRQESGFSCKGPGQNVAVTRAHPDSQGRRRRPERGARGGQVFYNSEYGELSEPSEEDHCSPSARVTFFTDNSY

As to `COC(=O)c1ccc2c(c1)NC(=O)/C2=C(\NC1CCC(NC(=O)CN(C)C)CC1)c1ccccc1` (centres undefined), in [1], the pIC50 is under 5.00.

For the molecule `COC(=O)c1ccc2c(c1)NC(=O)/C2=C(\Nc1ccc(CN2CCCCC2)cc1)c1ccccc1`, the pIC50 in data set [1] was 7.44; in [6] it was 7.15; in [7] it was 7.27; in data set [8], 6.84; in data set [9], 7.49. Besides, the results for the pEC50 in [2] and in data set [10] were under 6.00 and 6.99, respectively. For the same molecule, in [3], the highest level (Cmax) was 952 ng/mL. The half-life in data set [4] was 3.5 h. Moreover, the AUC in data set [5] came out at 5250 ng·h/mL.

Consider `CCOC(=O)c1ccc2c(c1)NC(=O)/C2=C(\Nc1ccc(CN2CCCCC2)cc1)c1ccccc1`, for which the negative logarithm of the IC50 (pIC50) in [1] is 6.96. The pEC50 was under 6.00 in data set [2] and 7.33 in [10].

In the case of `N#Cc1ccc2c(c1)NC(=O)/C2=C(\Nc1ccc(CN2CCCCC2)cc1)c1ccccc1`, the pIC50 in [1] was 6.61. Besides, in data set [10], the pEC50 is 6.55.

For `COC(=O)c1ccc2c(c1)NC(=O)/C2=C(\Nc1cccc(C(=O)N(C)CCCN(C)C)c1)c1ccccc1`, the pIC50 in data set [1] is 6.61.

Molecule `COC(=O)c1ccc2c(c1)NC(=O)/C2=C(\Nc1ccc(CN2CCCC2=O)cc1)c1ccccc1` showed a pIC50 in [1] of 6.61.

`COC(=O)c1ccc2c(c1)NC(=O)/C2=C(\Nc1ccc(N(CCN(C)C)S(C)(=O)=O)cc1)c1ccccc1` had a pIC50 in data set [1] of 7.64. This molecule also showed a pEC50 in data set [10] of 7.85.

`Nc1ccc2c(c1)NC(=O)/C2=C(\Nc1ccc(CN2CCCCC2)cc1)c1ccccc1` showed a negative-log IC50 (pIC50) in data set [1] of 6.88. Moreover, the pEC50 in [10] is 6.38.

`CCN(C)C(=O)c1ccc2c(c1)NC(=O)/C2=C(\Nc1ccc(CN2CCCCC2)cc1)c1ccccc1`: the pIC50 in data set [1] was 5.84. Further, the pEC50 in data set [10] was 6.14.

`COC(=O)c1ccc2c(c1)NC(=O)/C2=C(\Nc1ccc(CN(C)C)cc1)c1ccccc1` had a negative logarithm of the IC50 (pIC50) in [1] of 7.19.

`O=C1Nc2cc([N+](=O)[O-])ccc2/C1=C(/Nc1ccc(CN2CCCCC2)cc1)c1ccccc1` showed a pIC50 in data set [1] of 8.15. The results for the pEC50 in data set [2] and in [10] were under 6.00 and 7.22, respectively.

In [1], `COC(=O)c1ccc2c(c1)NC(=O)/C2=C(\Nc1ccc(N(C)S(C)(=O)=O)cc1)c1ccccc1` gave a pIC50 of 6.82.

Turning to `O=C1Nc2cc(Cl)ccc2/C1=C(/Nc1ccc(CN2CCCCC2)cc1)c1ccccc1`, the negative logarithm of the IC50 (pIC50) in [1] was 6.89. The pEC50 in data set [10] was 7.31.

As to `CN(C)C(=O)c1ccc2c(c1)NC(=O)/C2=C(\Nc1ccc(CN2CCCCC2)cc1)c1ccccc1`, in data set [1], the pIC50 was 5.88. In addition, the pEC50 in [10] was 6.27.

`COC(=O)c1ccc2c(c1)NC(=O)/C2=C(\NC1CCN(C)CC1)c1ccccc1` gave a pIC50 in [1] of under 5.00.

Take `O=C1Nc2cc(-n3cccc3)ccc2/C1=C(/Nc1ccc(CN2CCCCC2)cc1)c1ccccc1`: the pIC50 in data set [1] is 6.10. This molecule showed a pEC50 in [10] of 6.23.

Molecule `COC(=O)c1ccc2c(c1)NC(=O)/C2=C(\Nc1ccc(NC(=O)CN(C)C)cc1)c1ccccc1` showed a pIC50 in [1] of 6.92. For the same molecule, in [10], the pEC50 was 7.06.

For the molecule `CC(C)NC(=O)c1ccc2c(c1)NC(=O)/C2=C(\Nc1ccc(CN2CCCCC2)cc1)c1ccccc1`, the pIC50 in [1] was 5.91. The molecule further gave a negative-log EC50 (pEC50) in data set [10] of 5.97.

For the molecule `COC(=O)c1ccc2c(c1)NC(=O)/C2=C(\Nc1ccccc1)c1ccccc1`, the pIC50 in data set [1] is 5.10.

In [1], `COC(=O)c1ccc2c(c1)NC(=O)/C2=C(\Nc1ccc(N(CC(=O)N(C)C)C(C)=O)cc1)c1ccccc1` had a pIC50 of 8.10. In [10], this molecule showed a pEC50 of 7.43.

Turning to `NC(=O)c1ccc2c(c1)NC(=O)/C2=C(\Nc1ccc(CN2CCCCC2)cc1)c1ccccc1`, the pIC50 in data set [1] is 6.12; in data set [11], under 5.00; in [12], under 5.00; in [13] it was under 5.00; in data set [14], under 5.00; in [15], under 5.00. In addition, the pIC50 in [16] and in [17] was under 5.00 in each case. Also, the pEC50 in data set [10] was 6.47.

Molecule `CC(=O)c1ccc2c(c1)NC(=O)/C2=C(\Nc1ccc(CN2CCCCC2)cc1)c1ccccc1` showed a pIC50 in data set [1] of 5.76.

In the case of `COC(=O)c1ccc2c(c1)NC(=O)/C2=C(\Nc1ccc(N(CCN(C)C)C(C)=O)cc1)c1ccccc1`, the pIC50 in data set [1] was 7.92. Moreover, the pEC50 in [10] was 7.82.

In [1], `COC(=O)c1ccc2c(c1)NC(=O)/C2=C(\Nc1ccc(N(C)C(=O)Cn2ccnc2)cc1)c1ccccc1` showed a pIC50 of 8.22. Further, the pEC50 in data set [10] was 7.28.

Take `O=C1Nc2cc(C(=O)O)ccc2/C1=C(/Nc1ccc(CN2CCCCC2)cc1)c1ccccc1`: the pIC50 in data set [1] is under 6.00.

In [1], `COC(=O)c1ccc2c(c1)NC(=O)/C2=C(\Nc1ccc(N(CCCN(C)C)C(C)=O)cc1)c1ccccc1` showed a pIC50 of 8.05. The same molecule gave a pEC50 in data set [10] of 7.82.

Turning to `COC(=O)c1ccc2c(c1)NC(=O)/C2=C(\Nc1ccc(NC(=O)CN2CCN(C)CC2)cc1)c1ccccc1`, the pIC50 in data set [1] was 7.08. The pEC50 in [10] is 7.08.

Take `COC(=O)c1ccc2c(c1)NC(=O)/C2=C(\Nc1ccc(CN(C)C(=O)N(C)C)cc1)c1ccccc1`: the pIC50 is 7.21 in data set [1]; under 5.00 in data set [11]; under 5.00 in data set [12]; under 5.00 in data set [13]; under 5.00 in data set [14]; under 5.00 in [15]. The pIC50 in [16] was under 5.00; in data set [17], under 5.00; in data set [6], 7.30; in data set [7], 7.70; in [8] it was 7.09; in data set [9] it was 8.00. For the same molecule, the pIC50 in [10] was 7.66. For the same molecule, the pEC50 in data set [2], in [20] and in data set [21] was under 6.00 throughout. The molecule also registered a concentration at 2 h in data set [18] of 1250 nM. This molecule also showed a concentration at 24 h in data set [19] of 16 nM. Also, the T/C is recorded as 13% in data set [22], 31% in data set [23] and 11% in data set [24].

Regarding `CNC(=O)c1ccc2c(c1)NC(=O)/C2=C(\Nc1ccc(CN2CCCCC2)cc1)c1ccccc1`, the pIC50 in data set [1] is 5.68. The pEC50 in [10] was 5.72.

Regarding `COC(=O)c1ccc2c(c1)NC(=O)/C2=C(\Nc1ccc(C(=O)N(C)CCN(C)C)cc1)c1ccccc1`, the pIC50 in data set [1] was 7.62. The molecule also showed a pEC50 in [10] of 7.60.

Molecule `CC(=O)Nc1ccc2c(c1)NC(=O)/C2=C(\Nc1ccc(CN2CCCCC2)cc1)c1ccccc1` had a pIC50 in data set [1] of under 5.52.

In turn, `O=C1Nc2ccccc2/C1=C(/Nc1ccc(CN2CCCCC2)cc1)c1ccccc1` had a pIC50 in data set [1] of 5.68.
